From PubChem BioAssay (NCI) come the findings set out here.

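In this assay, cells in 96-well plates receive the compound at five concentrations for 48 hours. Endpoints are linearly interpolated between the surrounding concentrations. GI50 marks 50% less growth. TGI denotes the concentration required for complete inhibition of growth.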

Among the test systems are BT-549 breast; T-47D breast; DU-145 prostate; MDA-MB-231 breast; MCF7 breast; HS 578T breast.
Test in all cases: DTP human tumour cell line panel, 48 h

Consider `COC(=O)/C(C#N)=C\N1CCN(C(=O)c2ccco2)C1=S`, for which the GI50 in the experiment with BT-549 breast was 4.16 µM; in the experiment on T-47D breast it was 4.63 µM; in the experiment on DU-145 prostate, 3.54 µM; in the experiment with MDA-MB-231 breast, 4.17 µM. In addition, the TGI worked out at 13.6 µM in the experiment on BT-549 breast, 67.1 µM in the experiment on T-47D breast, 14 µM in the experiment on DU-145 prostate and 15.8 µM in the experiment with MDA-MB-231 breast.
Regarding `COc1cc(/C=C/C(=O)C(=Cc2ccc(F)c(F)c2)C(=O)/C=C/c2ccc(O)c(OC)c2)ccc1O`, the GI50 is 2.57 µM in the experiment with MCF7 breast; 3.25 µM with HS 578T breast; 2.68 µM with BT-549 breast; 2.31 µM with T-47D breast; 2.1 µM in the experiment on DU-145 prostate; 3.48 µM with MDA-MB-231 breast. The TGI worked out at 11 µM with MCF7 breast; 15.4 µM with HS 578T breast; 7.13 µM in the experiment on BT-549 breast; 7.7 µM in the experiment on T-47D breast; 5.27 µM in the experiment on DU-145 prostate; 16.7 µM with MDA-MB-231 breast.
For the molecule `C=CCN1C(=O)/C(=c2\sc3n(c2=O)C2C(NN=3)N(CC)C(=O)N2CC)c2ccccc21` (configuration not stated), the GI50 is 0.448 µM in the experiment with MCF7 breast; 0.447 µM with HS 578T breast; 1.65 µM in the experiment on BT-549 breast; 0.438 µM in the experiment on T-47D breast; 0.59 µM in the experiment on DU-145 prostate; 1.23 µM in the experiment with MDA-MB-231 breast. The TGI with MCF7 breast is greater than 100 µM; in the experiment with HS 578T breast, 58.5 µM; with BT-549 breast it was greater than 75.6 µM; in the experiment on T-47D breast, greater than 100 µM; with DU-145 prostate, greater than 37.3 µM; with MDA-MB-231 breast, 7.96 µM.
As to `Cc1ccc(/C=C(\C#N)n2nnc3cc(Cl)c(Cl)cc32)cc1`, the GI50 was 1.88 µM in the experiment on MCF7 breast; 2.83 µM in the experiment on HS 578T breast; 1.81 µM in the experiment with BT-549 breast; 3.27 µM in the experiment with DU-145 prostate; 2.7 µM in the experiment on MDA-MB-231 breast. The TGI with MCF7 breast was greater than 100 µM; with HS 578T breast, greater than 100 µM; with BT-549 breast it was 4.59 µM; with DU-145 prostate, greater than 100 µM; in the experiment with MDA-MB-231 breast, 17.2 µM.
As for `COc1cccc(Nc2nc(NNC(=O)Cc3ccccc3)nc(NNC(=O)c3ccncc3)n2)c1`, the GI50 in the experiment on MCF7 breast, in the experiment on HS 578T breast, in the experiment on DU-145 prostate and in the experiment with MDA-MB-231 breast was greater than 100 µM throughout. In addition, the TGI in the experiment with MCF7 breast, in the experiment on HS 578T breast, in the experiment on DU-145 prostate and with MDA-MB-231 breast was greater than 100 µM in each case.
In the case of `CC(C)=CC/C=C(/C)[C@H]1CC[C@]2(C)[C@@H]1CC[C@@H]1[C@@]3(C)CCC(=O)NC(C)(C)[C@@H]3CC[C@]12C`, the GI50 in the experiment on MCF7 breast was 18.8 µM; with HS 578T breast, 26.3 µM; with BT-549 breast, 18.7 µM; in the experiment with T-47D breast, 19.8 µM; in the experiment on DU-145 prostate, 16.9 µM; in the experiment with MDA-MB-231 breast it was 20.5 µM. In addition, the concentration for total growth inhibition (TGI) came out at 62.8 µM with MCF7 breast; 94.3 µM in the experiment on HS 578T breast; 43.5 µM in the experiment on BT-549 breast; 91 µM in the experiment with T-47D breast; 31.7 µM in the experiment on DU-145 prostate; 44.3 µM in the experiment with MDA-MB-231 breast.
Turning to `CCCc1cc(=O)oc2c(C(=O)CC(C)C)c(O)c(CC=C(C)C)c(O)c12`, the GI50 was 7.83 µM with MCF7 breast; 13.4 µM in the experiment with HS 578T breast; 7.85 µM in the experiment on BT-549 breast; 9.33 µM with T-47D breast; 14.4 µM with DU-145 prostate; 9.81 µM in the experiment on MDA-MB-231 breast. The TGI in the experiment on MCF7 breast was greater than 50 µM; in the experiment on HS 578T breast it was greater than 50 µM; in the experiment with BT-549 breast, 42.4 µM; with T-47D breast, 40.3 µM; in the experiment on DU-145 prostate it was greater than 50 µM; with MDA-MB-231 breast, 24.7 µM.
Consider `O=C(N[C@H](c1ccc(Cl)c(Cl)c1)C1CNC1)c1ccc2cnccc2c1`, for which the GI50 is 3.25 µM in the experiment with MCF7 breast; 1 µM with HS 578T breast; 2.64 µM in the experiment with BT-549 breast; 2.29 µM in the experiment on T-47D breast; 8.52 µM with DU-145 prostate; 3.36 µM in the experiment with MDA-MB-231 breast. The TGI in the experiment on MCF7 breast is 13.9 µM; with HS 578T breast, 4.71 µM; with BT-549 breast it was 12 µM; in the experiment on T-47D breast it was 13.5 µM; in the experiment on DU-145 prostate, 21 µM; in the experiment on MDA-MB-231 breast, 15 µM.
Take `C[N+](C)(C)CCOP(=O)(O)OP(=O)([O-])OCC1CCC(n2ccc(N)nc2=O)O1` (configuration not stated): the TGI in the experiment on MCF7 breast, in the experiment with HS 578T breast, in the experiment on BT-549 breast, in the experiment with T-47D breast, with DU-145 prostate and in the experiment on MDA-MB-231 breast was greater than 100 µM each time.
On to `Clc1ccc(-c2nc3c(-c4ccc(Cl)cc4)nc(-c4ccccc4)cn3c2-c2ccc(Cl)cc2)cc1`, for which the GI50 with MCF7 breast was greater than 50 µM; in the experiment on HS 578T breast it was 10.8 µM; with BT-549 breast, 14.2 µM; in the experiment with T-47D breast it was greater than 50 µM; in the experiment with DU-145 prostate, greater than 50 µM; in the experiment on MDA-MB-231 breast, 27.9 µM. Moreover, the TGI in the experiment on MCF7 breast, with HS 578T breast, in the experiment with BT-549 breast, in the experiment on T-47D breast, in the experiment with DU-145 prostate and in the experiment on MDA-MB-231 breast was greater than 50 µM each time.
As for `COc1cc(CNC(=O)/C=C/C=C/c2ccc3c(c2)OCO3)ccc1OCc1cn(-c2ccc(Cl)c(Cl)c2)nn1`, the GI50 with MCF7 breast was 0.889 µM; with HS 578T breast it was 2.53 µM; with BT-549 breast, 1.83 µM; in the experiment with T-47D breast, 1.17 µM; in the experiment with DU-145 prostate it was 1.45 µM; with MDA-MB-231 breast it was 1.95 µM. Besides, the TGI came out at 3.23 µM with MCF7 breast; 8.56 µM with HS 578T breast; 4.46 µM in the experiment with BT-549 breast; 3.49 µM with T-47D breast; 3.16 µM with DU-145 prostate; 5 µM with MDA-MB-231 breast.
In the case of `CCCCCCN(CCCCCC)CCCNc1nccc2ccccc12`, the GI50 is 1.56 µM in the experiment with MCF7 breast; 2.13 µM in the experiment on HS 578T breast; 1.79 µM in the experiment with BT-549 breast; 3.42 µM with DU-145 prostate; 1.44 µM in the experiment with MDA-MB-231 breast. Moreover, the TGI came to 3.46 µM in the experiment on MCF7 breast; 5.66 µM with HS 578T breast; 3.47 µM in the experiment on BT-549 breast; 11.9 µM with DU-145 prostate; 2.91 µM in the experiment on MDA-MB-231 breast.
For `CCCCCCCCCc1cc(O)c(O)cc1CCCCCCCCC`, the TGI in the experiment on MCF7 breast, in the experiment on HS 578T breast, with BT-549 breast, in the experiment with T-47D breast, with DU-145 prostate and in the experiment on MDA-MB-231 breast was greater than 10 µM each time.
